How the values were obtained:
MDA-MB-468 cells [1] = experiment: Quantification of RNA from MDA-MB-468 cells isolated after 72 h sample storage; type: cell-based, human; conditions: 72 hours at room temperature, GCK DNA as reference, two donors
Procedure: MDA-MB-468 cells were spiked into blood samples obtained from two healthy individuals at 14.4×10^6 cells/ml. From each donor four samples were prepared. […] Aliquots from these samples were processed immediately after set up, other aliquots were processed after storage at room temperature for 72 hours. MDA-MB-468 cells were isolated from blood by capturing with BreastSelectBeads from Adnagen Cat. No.: T1-508 with 1,000 μl aliquots of sample material according to the protocol recommended by the manufacturer.
The bead captured purified cells were resuspended in 1,000 μl PBS. With 200 μl aliquots RNA was isolated using the MagNA Pure LC DNA Isolation Kit—Large volume Cat No 03310515001 using the Program “DNA LV Blood_20_200” and an elution volume of 100 μl.
The RNA was transcribed into cDNA using Transcriptor First Strand cDNA Synthesis Kit Cat. No: 04897030001 in reactions of 70 μl volume, each reaction containing 12.5 μl of isolated nucleic acid. PCR was peformed with the with the LightCycler 480 Probes Master in a LightCycler 480 instrument in 20 μl reactions containing 5 μl of the cDNA samples. […]
To quantify the changes in expression level of the RNA target tested, the relative quantification method of Livak and Schmittgen was used (Livak K. J. and Schmittgen T. D., Methods 2001, 25(4) 402-408). […]

MDA-MB-468 cells [2] = experiment: Isolation of viable cells after sample storage for 48 hours, Trypan blue exclusion; type: cell-based, human; conditions: 48 hours at room temperature, two donors
Procedure: MDA-MB-468 cells were spiked into blood samples obtained from healthy individuals to result in a final concentration of 300,000 spiked cells/ml blood. The samples were processed either immediately or after storage at room temperature for 48 hours.
Immediately after sample set up and 48 hours later nucleated cells were enriched by erythrocyte lysis. […] The cells were sedimented by centrifugation at 200×g for 15 min.
From these samples the MDA-MB-468 cells were isolated using CD326 (EpCAM) Microparticles from Miltenyi (Cat No 130-061-101), MS columns and the MACS separator system (Milteny Cat. Nos. 130-042-201, 130-042-102) making use of the protocol recommended by the manufacturer.
The enriched cells were suspended in 300 μl of RPMI medium.
The viability of the cells was tested with the Trypan blue exclusion method. 10 μl of each sample was mixed with 10 μl of Trypan blue (Sigma-Aldrich T8154). The number of MDA-MB-468 cells excluding the dye was counted in a Neubauer chamber. The yield of viable cells was calculated using the cell number spiked into the blood samples as 100%.

MDA-MB-468 cells [3] = conditions: blood stored 48 hours at room temperature; cell index for 101 hours
Procedure: MDA-MB-468 cells treated and isolated as described in Example 6 were seeded into the wells of an E-Plate 96-well device (Roche Applied Science, Cat. No. 06472451001, Roche Diagnostics GmbH Mannheim, Germany) for the Real-Time Cell Analyzer (RTCA) MP (xCELLigence system). 50 μl aliquots of cells were seeded into wells containing 50 μl of RPMI medium. Duplicates were used for analysis. The E-Plate was incubated over night at 37° C. in an incubator to allow attachment of MDA-MB-468 cells to the bottom of the E-Plate. In order to remove contaminating blood derived cells the medium was removed and cells attached to the culture plate were washed 3 times with PBS. 150 μl of fresh RPMI medium was added per well and the E-Plate transferred to the Real-Time Cell Analyzer. Cell index was measured once per hour for 101 hours.

MDA-MB-468 cells [4] = experiment: Preservation of cellular proteins: anti-CK5/8 immunostaining of MDA-MB-468 cells spiked into blood; type: cell-based, human; conditions: EDTA blood, 48 hours at room temperature; Sivelestat 10 μg/ml, Pefabloc SC 1 mM, SkQ1 100 nM, Mito Q 100 nM, glutathione 3 mM; versus EDTA without additive
Procedure: Preservation of Cellular Proteins Suspended cells of MDA-MB-468, a human breast cancer cell line were spiked into blood samples obtained from healthy individuals to result in 100,000 spiked cells per ml blood. The samples were processed either immediately or after storage at room temperature for 48 hours.
Nucleated cells were enriched by erythrocytes lysis. […] After centrifugation at 200×g for 15 min, the supernatant was removed and the pellet was resuspended in 250 μl of lysis buffer. […] The cells were sedimented by centrifugation at 200×g for 15 min.
For each sample a volume of 50 μl of the cell suspension was spotted on a glass slide and air-dried. The slides were fixed in ice cold acetone for 10 min, washed with PBS twice and immersed in labeling mixture containing anti-cytokeratine K5/K8-FITC labeled antibody diluted 1:50 in PBS (cytokeratine=CK). After an incubation for 30 min in the dark the supernatant was removed. DAPI-containing mounting medium was added, the spots covered with cover slips and after a further incubation for 20 min analyzed on a Zeiss Axio Observer Microscope. The total number of nucleated cells and the CK 5/8 positive cells were analyzed with the Assay Builder Software from Zeiss.
MDA-MB-468 cells were spiked into blood samples obtained from healthy individuals to result in a concentration of 100,000 spiked cells/ml blood. The samples were processed either immediately or after storage at room temperature for 48 hours. […] Sample 3 was additionally supplemented with the mitochondria targeted antioxidant SS-31 (1 μM), sample 4 with glutathione (0.75 mM). Nucleated cells were enriched by erythrocytes lysis and processed as described in Example 1.

SMILES | percentage of MDA-MB-468 cells detected by immunostaining with Anti-CK5/8 (FIG. 1) (MDA-MB-468 cells [4]) | also measured
O=C(O)CN(CCN(CC(=O)O)CC(=O)O)CC(=O)O [EDTA] |  | change of RNA levels of isolated MDA-MB-468 cells (FIG. 4) (MDA-MB-468 cells [1]): strong decline in RNA levels; cell viability after storage, in words (MDA-MB-468 cells [2]): negatively affected; cell growth in culture of cells isolated from stored blood (FIG. 5) (MDA-MB-468 cells [3]): not culturable anymore
COC1=C(OC)C(=O)C(CCCCCCCCCC[P+](c2ccccc2)(c2ccccc2)c2ccccc2)=C(C)C1=O [MitoQ, (10-(2,5-dihydroxy-3,4-dimethoxy-6-methylphenyl)decyl) triphenylphosphonium and (10-(4,5-dimethoxy-2-methyl-3,6-dioxocyclohexa-1,4-dienyl)decyl) triphenylphosphonium] | Particular positive effects | 
Cl.NCCc1ccc(S(=O)(=O)F)cc1 [Pefabloc SC, 4-(2-aminoethyl) benzenesulfonyl fluoride hydrochloride] | higher signals than the control sample without additive | 
CC(C)(C)C(=O)Oc1ccc(S(=O)(=O)Nc2ccccc2C(=O)NCC(=O)O)cc1 [Sivelestat] | higher signals than the control sample without additive | 
CC1=C(C)C(=O)C(CCCCCCCCCC[P+](c2ccccc2)(c2ccccc2)c2ccccc2)=CC1=O [SkQ1, 10-(6′-plastoquinonyl) decyltriphenylphosphonium] | Particular positive effects | 
N[C@@H](CCC(=O)N[C@@H](CS)C(=O)NCC(=O)O)C(=O)O [glutathione] | further positive effect | 

Reference: patent publication US20210015092A1, “STABILIZATION OF WHOLE BLOOD AT ROOM TEMPERATURE” (Roche Diagnostics Operations, Inc., priority 2014, published 2021)
